Measurements: paper PMC7407491, “The Addition of a Synthetic LPS-Targeting Domain Improves Serum Stability While Maintaining Antimicrobial, Antibiofilm, and Cell Stimulating Properties of an Antimicrobial Peptide” (Biomolecules, 2020)
In brackets after ≈: the same amount, converted by molar mass. Bridge positions count the residues as written; N and C are the ends. Peptide text beside a SMILES is read from it.

Key:
S. typhimurium biofilm = test: Enumeration of viable cells after biofilm inhibition; type: cell-based, Salmonella typhimurium; conditions: 4 µg/mL, 48 h biofilm formation, CFU plated
Procedure: In order to investigate whether prevention or degradation of biofilm by peptide treatment impacted bacterial cell growth within the biofilm, an enumeration assay was carried out. The following protocol was developed using methods described in the work by Wilson et al.. Briefly, in separate 15 mL culture tubes, 20 µL of overnight culture of either E. coli, S. typhimurium, or MRSA were added to 1 mL of minimal salt media (40 mM […]; 22 mM KH2PO4; […] NH4CL; 740 mM NaCl; 2 mM MgSO4; 0.1 mM CaCl2; 22 mM supplemented with D-Glucose) and treated with PG-1 or SynPG-1. Due to the laborious procedure, the study was limited to measuring cell viability for only two concentrations, basing the choice on the highest significant reduction of biomass from crystal violet staining for each strain. […] These concentrations were chosen for the enumeration assay. In instances where no substantial reduction was seen, as in the case of E. coli, the highest tested biomass concentration, or higher, was chosen to confirm the lack of activity on viability. […] Tubes were placed in a static incubator at 37 °C for 48 h; the time required for untreated wells to form biofilm. After 48 h, treated media was removed and wells were rinsed with 1 mL of PBS to remove planktonic cells. […] CFU was recorded. […]

MRSP = type: cell-based, Methicillin-resistant Staphylococcus pseudointermedius; conditions: 2 h, pH 7
Procedure: (§1) Veterinary clinical isolates, including Salmonella typhimurium, multi-drug resistant Escherichia coli, methicillin-resistant Staphylococcus aureus (MRSA), and methicillin-resistant Staphylococcus pseudointermedius (MRSP), were kindly provided by Dr. H. Cai (Department of Pathobiology, University of Guelph, ON, Canada). An antibiogram for these strains is available in the supplementary text (Table S1). Gram-negative strains were cultured in Luria−Bertani (LB) broth. Gram-positive strains were cultured in Tryptic soy broth (TSB). Both cultures were grown under aerobic conditions at 37 °C.
(§2) The minimum bactericidal concentration (MBC) of SynPG-1 against the tested pathogens was identified through a broth macrodilution antimicrobial assay as previously described, with some modification. […] The buffer volume was adjusted to accommodate the addition of SynPG-1 and PG-1 so that the final solution volume was 0.5 mL for each tested concentration. Final peptide concentrations ranged from 0.1 µg/mL to 8 µg/mL. PG-1 at the known MBC (2 µg/mL E. coli; 4 µg/mL S. typhimurium; 0.5 µg/mL MRSP; 0.5 µg/mL MRSA) was considered the in-house positive control, while the suspension containing no peptide was considered the negative control. Experimental and control tubes were incubated for 2 h at 37 °C without shaking to allow for bactericidal action to occur. […] Colony numbers from each plate were recorded. […]

[1] = Activity after incubation in serum (functional serum stability); type: in vitro ADME, pig
Procedure: To compare serum stability, a similar procedure was utilized, as described in Dong et al., with some modification. Briefly, a solution of 25% pig serum was made by diluting fresh pig serum with phosphate buffer saline (PBS). […] Suspension containing no peptide was considered the negative control. Experimental and control tubes were incubated for up to 7 or 24 h in 37 °C to allow for serum constituent interaction with the peptide. […] Experimental and control tubes were incubated for 2 h at 37 °C without shaking to allow for bactericidal action to occur. […] This experiment was carried out three independent times. […] On the other hand, SynPG-1 maintained strong antimicrobial activity even after 24 h of incubation in serum, indicated through a consistently low mean % growth, as compared to the controls seen in Figure 2b. […] All experiments were conducted three independent times. […] Data represent the mean ± SEM of three experiments. The asterisk represents p < 0.05 when compared with SynPG-1 by two-way ANOVA with a post hoc Tukey test.

Escherichia coli = type: cell-based; conditions: 2 h, pH 7
Procedure: as §1, §2

MRSA = type: cell-based, Methicillin-resistant Staphylococcus aureus; conditions: 2 h, pH 7
Procedure: as §1, §2

IPEC-J2 cells = test: In vitro cell migration, transwell assay; type: cell-based, porcine; conditions: transwell 8-micron, serum-free DMEM F-12, 5 to 20 µg/mL, 16 h, Hoechst 33342 count; SynPG-1 not significant at higher concentrations
Procedure: A cell line, established from intestinal porcine enterocytes, isolated from the jejunum of a neonatal unsuckled piglet (IPEC-J2 cells, DSMZ), was grown in monolayer culture in Dulbecco’s modified Eagle’s medium (high glucose), supplemented with 10% fetal bovine serum (FBS) from Invitrogen, 100 IU/mL penicillin, and 100 µg/mL streptomycin. Cultures were maintained in a 5% CO2 humidified atmosphere at 37 °C and passaged every 2–3 days, with detachment via the Trypsin-EDTA solution (Sigma).
To evaluate migration of IPEC-J2 cells, 8-micron pore-sized cell culture transwell inserts were used (Millipore Inc, Temecula, CA, USA). A total of 1 × 10^5 cells were plated in the upper inserts of the transwell and placed within 24-well plates, containing serum-free DMEM F-12 in the absence and presence of SynPG-1 or PG-1, at concentrations ranging from 5 µg/mL to 20 µg/mL. After incubation for 16 h, the cells were fixed with 4% (w/v) paraformaldehyde. […] Migration was quantified by cell enumeration through Hoechst 33342 staining of cell nuclei (Thermo Fisher Scientific, Mississauga, ON, Canada). The results are represented as the relative fold increase in migrated cells when compared to the baseline migration of IPEC-J2 cells in serum-free media after 16 h.

[2] = 25% porcine intestinal fluid (pH 6.5) in PBS, 1 mg/mL peptide, 1 h 37 °C with shaking; residual activity vs E. coli at 20 µg/mL, colony count; three independent experiments
Procedure: Porcine digestive fluids were collected, as previously described by Wang et al. [44]. […] The gastrointestinal tract was kept at 4 °C during dissection, and collection of contents from the stomach and upper small intestine (duodenum and jejunum) was conducted within 5 h of sacrifice. Contents were centrifuged at 10,000 rpm (9600× g) for 10 min at 4 °C, and supernatant fluid was collected and stored at −80 °C until its use in the stability experiment. The pH of the collected supernatants were 3.5 and 6.5 for gastric fluid and duodenum fluid, respectively.
Procedures similar to those used by Egger et al. [45] were used for this experiment. […] Suspension containing no peptide was considered the negative control. After incubation, 10 µL of the incubated solutions was added for a total volume of 0.5 mL, consisting of 20 µL of mid-logarithmic phase E. coli cells, diluted to a concentration of about 1 × 10^5 CFU/mL, and 470 µL of 20 mM sodium phosphate buffer (pH 7). […] Stability in porcine digestive fluid was evaluated as the relative colony growth on plates from bacterial grown with digestive fluid and peptide treatments, in comparison to plates grown from bacteria grown with digestive fluid alone.
Stability was evaluated by comparing the mean growth of colonies on plates treated with peptides incubated in digestive fluids to colonies grown when treated without peptide. […]

SMILES: CC[C@H](C)[C@H](NC(=O)[C@H](CCCCN)NC(=O)[C@H](CCCNC(=N)N)NC(=O)[C@H](CC(C)C)NC(=O)[C@H](CC(C)C)NC(=O)[C@H](CCCNC(=N)N)NC(=O)[C@H](CCCNC(=N)N)NC(=O)[C@H](CC(C)C)NC(=O)CN)C(=O)N[C@@H](CCCNC(=N)N)C(=O)NCC(=O)N[C@@H](CCCNC(=N)N)C(=O)N[C@@H](Cc1c[nH]c2ccccc12)C(=O)N[C@@H](CCCCN)C(=O)NCC(=O)NCC(=O)NCC(=O)N[C@@H](CCCNC(=N)N)C(=O)NCC(=O)NCC(=O)N[C@@H](CCCNC(=N)N)C(=O)N[C@@H](CC(C)C)C(=O)N[C@H]1CSSC[C@@H](C(=O)N[C@H](C(=O)NCC(=O)N[C@@H](CCCNC(=N)N)C(=O)O)C(C)C)NC(=O)[C@H](C(C)C)NC(=O)[C@@H]2CSSC[C@H](NC(=O)[C@H](Cc3ccc(O)cc3)NC1=O)C(=O)N[C@@H](CCCNC(=N)N)C(=O)N[C@@H](CCCNC(=N)N)C(=O)N[C@@H](CCCNC(=N)N)C(=O)N[C@@H](Cc1ccccc1)C(=O)N2 [SynPG-1, Syn-Protegrin-1] (H-GLRRLLRKIRGRWKGGGRGGRLCYCRRRFCVCVGR-OH; disulfide 23-32, 25-30; N-terminus and C-terminus assumed)
- Reduction of mean % growth of control compared with PG-1 (S. typhimurium biofilm): significantly lower reduction of mean % growth of control
- MBC (MRSP): 0.5 (0.09) μg/mL
- Time of incubation in 25% serum for which antimicrobial activity is maintained [1]: ≤ 24 h
- Increase in stability in 25% serum versus PG-1 ([1]; 24 h versus 2 h of retained activity in 25% serum): 12 fold
- MBC (Escherichia coli): 2 µg/mL (≈ 0.486 µM)
- MBC (MRSA): 0.5 (0.09) μg/mL
- Concentration at which cell migration increased significantly (IPEC-J2 cells): 5 µg/mL
- Antimicrobial activity after incubation in 25% porcine intestinal fluid [2]: mean % growth of control increased
